Experimental data published in US12129312B2, “Peptide compound, application thereof and composition containing same” (priority 2017, dated 2024).
Like-named read-outs stand apart in the source and are kept apart here. Numbered stars: 1 amine (or outer) side, 2 acyl side, 3 side chain; on linkers, the order of the positions; unused ones are H or OH. Square brackets hold non-standard residues; d marks the D form. Peptide text beside a SMILES is read from it. * marks the point of attachment. X11 = O=C([C@@H](Cc1ccc(O)cc1)N(CCCc1ccccc1)[*:1])[*:2]; Pro(5R-Ph) = O=C(O)[C@@H]1CC[C@H](c2ccccc2)N1; Diphenylacetyl = O=C(C(c1ccccc1)c1ccccc1)*; dTyr(3-F) = N[C@H](Cc1ccc(O)c(F)c1)C(=O)O; PEG8 = NCCOCCOCCOCCOCCOCCOCCOCCOCCC(=O)O; Benzoyl(2,3-diOH) = O=C(c1cccc(O)c1O)*; Phe(4-Me) = Cc1ccc(C[C@H](N)C(=O)O)cc1; Pro(4,4-F2) = O=C(O)[C@@H]1CC(F)(F)CN1; X5 = O=C([C@H]1c2ccccc2CCN1[*:1])[*:2]; 1Nal = N[C@@H](Cc1cccc2ccccc12)C(=O)O; 2Nal = N[C@@H](Cc1ccc2ccccc2c1)C(=O)O; dNMeY = CN[C@H](Cc1ccc(O)cc1)C(=O)O; Palmitoyl = CCCCCCCCCCCCCCCC(=O)*; Myristoyl = CCCCCCCCCCCCCC(=O)*; Tic = O=C(O)[C@@H]1Cc2ccccc2CN1; NMeL = CN[C@@H](CC(C)C)C(=O)O; NMehSer = CN[C@@H](CCO)C(=O)O; Lauroyl = CCCCCCCCCCCC(=O)*; X9 = O=C(c1ccc(O)c(O)c1O)*; NMeS = CN[C@@H](CO)C(=O)O; Nva = CCC[C@H](N)C(=O)O; βAla = NCCC(=O)O

Target: T1, human Chemokine like receptor 1 (Homo sapiens, UniProt Q99788)
T1 construct: host or cells: U2OS (Tango CMKLR1-bla U2OS)
T1 sequence (Q99788 1-373): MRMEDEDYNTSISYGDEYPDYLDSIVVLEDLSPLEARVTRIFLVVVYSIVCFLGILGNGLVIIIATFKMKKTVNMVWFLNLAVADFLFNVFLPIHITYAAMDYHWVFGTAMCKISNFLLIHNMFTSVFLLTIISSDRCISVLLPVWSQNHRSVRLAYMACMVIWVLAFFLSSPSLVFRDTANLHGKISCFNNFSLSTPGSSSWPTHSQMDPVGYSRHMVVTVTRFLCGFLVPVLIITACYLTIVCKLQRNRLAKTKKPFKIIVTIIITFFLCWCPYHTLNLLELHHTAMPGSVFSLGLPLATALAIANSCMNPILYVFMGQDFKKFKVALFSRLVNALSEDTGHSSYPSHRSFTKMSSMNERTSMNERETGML
Assay: Activation of Tango CMKLR1-bla U2OS cells (beta-lactamase FRET reporter)
Format: cell-based
Procedure, shortened: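 Agonist mode in Tango CMKLR1-bla U2OS cells, 10000 cells/well seeded overnight, then 10-point 3-fold compound dilutions from 10 mM DMSO stock applied for 4 h at 37 °C, 5% CO2. Beta-lactamase reporter read with CCF4-AM FRET substrate; peptide (D-Tyr)-Phe-Leu-Pro-(D-Ser)-Gln-Phe-(D-Ala)-Tic-Ser served as positive control.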

[1] = determination by the method of Effect Embodiment 1, read-out: EC50

Compound	EC50 [1] [nM]	EC50 [nM]
CC(C)C[C@H](NC(=O)[C@H](Cc1ccccc1)NC(=O)[C@H](N)Cc1ccc(O)cc1)C(=O)N1[C@@H](c2ccccc2)CC[C@H]1C(=O)N[C@H](CO)C(=O)N[C@@H](CCC(N)=O)C(=O)N[C@@H](Cc1ccccc1)C(=O)N[C@H](C)C(=O)N1Cc2ccccc2C[C@H]1C(=O)N[C@@H](CO)C(=O)O [YW-112, (D-Tyr)-Phe-Leu-Pro(5Ph)-(D-Ser)-Gln-Phe-(D-Ala)-Tic-Ser-OH] (H-[dY]FL[Pro(5R-Ph)][dS]QF[dA][Tic]S-OH)	170	
CC(C)C[C@H](NC(=O)[C@H](Cc1ccccc1)NC(=O)[C@H](N)Cc1ccc(O)cc1)C(=O)N1CCC[C@H]1C(=O)N[C@H](CO)C(=O)N[C@@H](CCC(N)=O)C(=O)N[C@@H](Cc1ccccc1)C(=O)N[C@H](C)C(=O)N1Cc2ccccc2C[C@H]1C(=O)N[C@@H](CO)C(N)=O [YW-189, (D-Tyr)-Phe-Leu-Pro-(D-Ser)-Gln-Phe-(D-Ala)-Tic-Ser-NH2] (H-[dY]FLP[dS]QF[dA][Tic]S-NH2; N-terminus assumed)	6.8	
CC(C)C[C@H](NC(=O)[C@H](Cc1ccccc1)NC(=O)[C@@H](Cc1ccc(O)cc1)NCCCc1ccccc1)C(=O)N1CCC[C@H]1C(=O)N[C@H](CO)C(=O)N[C@@H](CCC(N)=O)C(=O)N[C@@H](Cc1ccccc1)C(=O)N[C@H](C)C(=O)N1Cc2ccccc2C[C@H]1C(=O)N[C@@H](CO)C(=O)O [YW-74, 3-Phenylpropyl-(D-Tyr)-Phe-Leu-Pro-(D-Ser)-Gln-Phe-(D-Ala)-Tic-Ser-OH] (H-[X11]FLP[dS]QF[dA][Tic]S-OH)	6.2	
CCCCCCCCCCCCCCCC(=O)NCCOCCOCCOCCOCCOCCOCCOCCOCCC(=O)NCCC(=O)NCCC(=O)N(C)[C@H](Cc1ccc(O)cc1)C(=O)N[C@@H](Cc1ccccc1)C(=O)N(C)[C@@H](CC(C)C)C(=O)N1CCC[C@H]1C(=O)N[C@H](CO)C(=O)N[C@@H](CCC(N)=O)C(=O)N[C@@H](Cc1ccc2ccccc2c1)C(=O)N[C@H](C)C(=O)N1Cc2ccccc2C[C@H]1C(=O)N(C)[C@@H](CO)C(=O)O [YW-179, Palm-PEG8-(beta-Ala)-(beta-Ala)-(D-NMeTyr)-Phe-(NMe-Leu)-Pro-(D-Ser)-Gln-2Nal-(D-Ala)-Tic-(NMe-Ser)] ({Palmitoyl-PEG8-βAla-βAla}-[dNMeY]F[NMeL]P[dS]Q[2Nal][dA][Tic][NMeS]-OH)	2.1	
CC(C)C[C@H](NC(=O)[C@H](Cc1ccccc1)NC(=O)[C@@H](Cc1ccc(O)cc1)NC(=O)c1ccc(O)c(O)c1O)C(=O)N1CCC[C@H]1C(=O)N[C@H](CO)C(=O)N[C@@H](CCC(N)=O)C(=O)N[C@@H](Cc1ccccc1)C(=O)N[C@H](C)C(=O)N1Cc2ccccc2C[C@H]1C(=O)N[C@@H](CO)C(=O)O [YW-129, 2,3,4-Trihydroxybenzoyl-(D-Tyr)-Phe-Leu-Pro-(D-Ser)-Gln-Phe-(D-Ala)-Tic-Ser-OH] (X9-[dY]FLP[dS]QF[dA][Tic]S-OH)	9.1	
CN[C@H](Cc1ccc(O)cc1)C(=O)N[C@@H](Cc1ccccc1)C(=O)N[C@@H](CC(C)C)C(=O)N1CCC[C@H]1C(=O)N[C@H](CO)C(=O)N[C@@H](CCC(N)=O)C(=O)N[C@@H](Cc1ccccc1)C(=O)N[C@H](C)C(=O)N1CCc2ccccc2[C@@H]1C(=O)N[C@@H](CO)C(=O)O [YW-154, (D-NMe-Tyr)-Phe-Leu-Pro-(D-Ser)-Gln-Phe-(D-Ala)-D-Ti1c-Ser-OH] (H-[dNMeY]FLP[dS]QF[dA][X5]S-OH)	34	
CCC[C@H](NC(=O)[C@H](Cc1ccccc1)NC(=O)[C@H](N)Cc1ccc(O)cc1)C(=O)N1CCC[C@H]1C(=O)N[C@H](CO)C(=O)N[C@@H](CCC(N)=O)C(=O)N[C@@H](Cc1ccccc1)C(=O)N[C@H](C)C(=O)N1Cc2ccccc2C[C@H]1C(=O)N[C@@H](CO)C(=O)O [YW-196, (D-Tyr)-Phe-Nva-Pro-(D-Ser)-Gln-Phe-(D-Ala)-Tic-Ser] (H-[dY]F[Nva]P[dS]QF[dA][Tic]S-OH)		39
CC(C)C[C@H](NC(=O)[C@H](Cc1ccccc1)NC(=O)[C@@H](Cc1ccc(O)cc1)NC(=O)C(c1ccccc1)c1ccccc1)C(=O)N1CCC[C@H]1C(=O)N[C@H](CO)C(=O)N[C@@H](CCC(N)=O)C(=O)N[C@@H](Cc1ccccc1)C(=O)N[C@H](C)C(=O)N1Cc2ccccc2C[C@H]1C(=O)N[C@@H](CO)C(=O)O [YW-78, diphenylacetyl-(D-Tyr)-Phe-Leu-Pro-(D-Ser)-Gln-Phe-(D-Ala)-Tic-Ser-OH] (Diphenylacetyl-[dY]FLP[dS]QF[dA][Tic]S-OH)		26
CC(C)C[C@@H](C(=O)N1CCC[C@H]1C(=O)N[C@H](CO)C(=O)N[C@@H](CCC(N)=O)C(=O)N[C@@H](Cc1ccccc1)C(=O)N[C@H](C)C(=O)N1Cc2ccccc2C[C@H]1C(=O)N[C@@H](CO)C(N)=O)N(C)C(=O)[C@H](Cc1ccccc1)NC(=O)[C@H](N)Cc1ccc(O)cc1 [YW-190, (D-Tyr)-Phe-(NMe-Leu)-Pro-(D-Ser)-Gln-Phe-(D-Ala)-Tic-Ser-NH2] (H-[dY]F[NMeL]P[dS]QF[dA][Tic]S-NH2; N-terminus assumed)	2.7	
CC(C)C[C@H](NC(=O)[C@H](Cc1ccccc1)NC(=O)[C@H](N)Cc1ccc(O)cc1)C(=O)N1CCC[C@H]1C(=O)N[C@H](CO)C(=O)N[C@@H](CCC(N)=O)C(=O)N[C@@H](Cc1cccc2ccccc12)C(=O)N[C@H](C)C(=O)N1Cc2ccccc2C[C@H]1C(=O)N[C@@H](CO)C(=O)O [YW-117, (D-Tyr)-Phe-Leu-Pro-(D-Ser)-Gln-1Nal-(D-Ala)-Tic-Ser-OH] (H-[dY]FLP[dS]Q[1Nal][dA][Tic]S-OH)		3.9
CC(C)C[C@@H](C(=O)N1CC(F)(F)C[C@H]1C(=O)N[C@H](CO)C(=O)N[C@@H](CCC(N)=O)C(=O)N[C@@H](Cc1ccc2ccccc2c1)C(=O)N[C@H](C)C(=O)N1Cc2ccccc2C[C@H]1C(=O)N(C)[C@@H](CO)C(=O)O)N(C)C(=O)[C@H](Cc1ccccc1)NC(=O)[C@H](N)Cc1ccc(O)c(F)c1 [YW-226, (D-Tyr(3F))-Phe-(NMe-Leu)-(DiFluorPro)-(D-Ser)-Gln-(Nal-2)-(D-Ala)-Tic-(NMe-Ser)] (H-[dTyr(3-F)]F[NMeL][Pro(4,4-F2)][dS]Q[2Nal][dA][Tic][NMeS]-OH)	3.3	
CC(C)C[C@H](NC(=O)[C@H](Cc1ccccc1)NC(=O)[C@@H](Cc1ccc(O)cc1)NC(=O)c1cccc(O)c1O)C(=O)N1CCC[C@H]1C(=O)N[C@H](CO)C(=O)N[C@@H](CCC(N)=O)C(=O)N[C@@H](Cc1ccccc1)C(=O)N[C@H](C)C(=O)N1Cc2ccccc2C[C@H]1C(=O)N[C@@H](CO)C(=O)O [YW-127, 2,3-dihydroxybenzoyl-(D-Tyr)-Phe-Leu-Pro-(D-Ser)-Gln-Phe-(D-Ala)-Tic-Ser-OH] ({Benzoyl(2,3-diOH)}-[dY]FLP[dS]QF[dA][Tic]S-OH)	10	
CCCCCCCCCCCCCC(=O)NCCOCCOCCOCCOCCOCCOCCOCCOCCC(=O)NCCC(=O)NCCC(=O)N(C)[C@H](Cc1ccc(O)cc1)C(=O)N[C@@H](Cc1ccccc1)C(=O)N(C)[C@@H](CC(C)C)C(=O)N1CCC[C@H]1C(=O)N[C@H](CO)C(=O)N[C@@H](CCC(N)=O)C(=O)N[C@@H](Cc1ccc2ccccc2c1)C(=O)N[C@H](C)C(=O)N1Cc2ccccc2C[C@H]1C(=O)N(C)[C@@H](CO)C(=O)O [YW-180, Tetradecanoyl-PEG8-βAla-βAla-(D-NMe-Tyr)-Phe-(NMe-Leu)-Pro-(D-Ser)-Gln-2Nal-(D-Ala)-Tic-(NMe-Ser)] ({Myristoyl-PEG8-βAla-βAla}-[dNMeY]F[NMeL]P[dS]Q[2Nal][dA][Tic][NMeS]-OH)	1.4	
CCCCCCCCCCCC(=O)NCCOCCOCCOCCOCCOCCOCCOCCOCCC(=O)NCCC(=O)NCCC(=O)N(C)[C@H](Cc1ccc(O)cc1)C(=O)N[C@@H](Cc1ccccc1)C(=O)N(C)[C@@H](CC(C)C)C(=O)N1CCC[C@H]1C(=O)N[C@H](CO)C(=O)N[C@@H](CCC(N)=O)C(=O)N[C@@H](Cc1ccc2ccccc2c1)C(=O)N[C@H](C)C(=O)N1Cc2ccccc2C[C@H]1C(=O)N(C)[C@@H](CO)C(=O)O [YW-181, Dodecanoyl-PEG8-βAla-βAla-(NMe-D-Tyr)-Phe-(NMe-Leu)-Pro-(D-Ser)-Gln-2Nal-(D-Ala)-Tic-(NMe-Ser)] ({Lauroyl-PEG8-βAla-βAla}-[dNMeY]F[NMeL]P[dS]Q[2Nal][dA][Tic][NMeS]-OH)	2.2	
CN[C@H](Cc1ccc(O)cc1)C(=O)N[C@@H](Cc1ccccc1)C(=O)N(C)[C@@H](CC(C)C)C(=O)N1CCC[C@H]1C(=O)N[C@H](CO)C(=O)N[C@@H](CCC(N)=O)C(=O)N[C@@H](Cc1cccc2ccccc12)C(=O)N[C@H](C)C(=O)N1Cc2ccccc2C[C@H]1C(=O)N[C@@H](CO)C(=O)O [YW-168, (D-NMe-Tyr)-Phe-(NMe-Leu)-Pro-(D-Ser)-Gln-1Nal-(D-Ala)-Tic-Ser-OH] (H-[dNMeY]F[NMeL]P[dS]Q[1Nal][dA][Tic]S-OH)	1.2	
CC(C)C[C@@H](C(=O)N1CCC[C@H]1C(=O)N[C@H](CO)C(=O)N[C@@H](CCC(N)=O)C(=O)N[C@@H](Cc1ccccc1)C(=O)N[C@H](C)C(=O)N1Cc2ccccc2C[C@H]1C(=O)N(C)[C@@H](CCO)C(=O)O)N(C)C(=O)[C@H](Cc1ccccc1)NC(=O)[C@H](N)Cc1ccc(O)cc1 [YW-177, (D-Tyr)-Phe-(NMe-Leu)-Pro-(D-Ser)-Gln-Phe-(D-Ala)-Tic-(NMe-HoSer)-OH] (H-[dY]F[NMeL]P[dS]QF[dA][Tic][NMehSer]-OH)	25	
Cc1ccc(C[C@H](NC(=O)[C@@H](C)NC(=O)[C@H](Cc2ccccc2)NC(=O)[C@H](CCC(N)=O)NC(=O)[C@@H](CO)NC(=O)[C@@H]2CCCN2C(=O)[C@H](CC(C)C)N(C)C(=O)[C@H](Cc2ccccc2)NC(=O)[C@H](N)Cc2ccc(O)cc2)C(=O)N[C@@H](CO)C(=O)O)cc1 [YW-205, (D-Tyr)-Phe-(NMe-Leu)-Pro-(D-Ser)-Gln-Phe-(D-Ala)-Phe(4-Me)-Ser] (H-[dY]F[NMeL]P[dS]QF[dA][Phe(4-Me)]S-OH)	6.2	
